The target of this assay is Citron kinase (Homo sapiens (Human), UniProt O14578). Description: Radiometric citron kinase assay (Eurofins Cat #16-040KP). Type of assay: biochemical. The note with it: mean of at least two independent assays; read-out: Radiometric CitK IC50. The text has this: In some embodiments, the step of contacting the sample with the compound comprises administering the compound to a subject (e.g., a subject) suffering from cancer. Methods of determining kinase inhibition are well known in the art. For example, kinase activity of an enzyme and the inhibitory capacity of a test compound can be determined by measuring enzyme specific phosphorylation of a substrate. Commercial assays and kits can be employed. For example, kinase inhibition can be determined using a radiometric binding assay, such as using KinaseProfiler™ technology (Eurofins Discovery). This assay method directly detects product formation without the use of modified substrates or coupling enzymes. Test compounds are incubated with kinase, substrate, required cofactors and radioisotope labeled ATP. Following incubation, unreacted radioactive ATP is removed by washing and incorporation of the radiolabeled phosphate into the kinase substrate is assayed to detect phosphoryltransferase activity, which is directly proportional to the amount of phosphorylated substrate. Inhibition of the kinase by a kinase inhibitor prevents phosphorylation of the substrate and thereby limits the incorporation of radiolabeled phosphate. Such an assay is compatible with a microwell assay format, allowing simultaneous determination of IC50 of multiple compounds.
Chain of Citron kinase (O14578 whole entry): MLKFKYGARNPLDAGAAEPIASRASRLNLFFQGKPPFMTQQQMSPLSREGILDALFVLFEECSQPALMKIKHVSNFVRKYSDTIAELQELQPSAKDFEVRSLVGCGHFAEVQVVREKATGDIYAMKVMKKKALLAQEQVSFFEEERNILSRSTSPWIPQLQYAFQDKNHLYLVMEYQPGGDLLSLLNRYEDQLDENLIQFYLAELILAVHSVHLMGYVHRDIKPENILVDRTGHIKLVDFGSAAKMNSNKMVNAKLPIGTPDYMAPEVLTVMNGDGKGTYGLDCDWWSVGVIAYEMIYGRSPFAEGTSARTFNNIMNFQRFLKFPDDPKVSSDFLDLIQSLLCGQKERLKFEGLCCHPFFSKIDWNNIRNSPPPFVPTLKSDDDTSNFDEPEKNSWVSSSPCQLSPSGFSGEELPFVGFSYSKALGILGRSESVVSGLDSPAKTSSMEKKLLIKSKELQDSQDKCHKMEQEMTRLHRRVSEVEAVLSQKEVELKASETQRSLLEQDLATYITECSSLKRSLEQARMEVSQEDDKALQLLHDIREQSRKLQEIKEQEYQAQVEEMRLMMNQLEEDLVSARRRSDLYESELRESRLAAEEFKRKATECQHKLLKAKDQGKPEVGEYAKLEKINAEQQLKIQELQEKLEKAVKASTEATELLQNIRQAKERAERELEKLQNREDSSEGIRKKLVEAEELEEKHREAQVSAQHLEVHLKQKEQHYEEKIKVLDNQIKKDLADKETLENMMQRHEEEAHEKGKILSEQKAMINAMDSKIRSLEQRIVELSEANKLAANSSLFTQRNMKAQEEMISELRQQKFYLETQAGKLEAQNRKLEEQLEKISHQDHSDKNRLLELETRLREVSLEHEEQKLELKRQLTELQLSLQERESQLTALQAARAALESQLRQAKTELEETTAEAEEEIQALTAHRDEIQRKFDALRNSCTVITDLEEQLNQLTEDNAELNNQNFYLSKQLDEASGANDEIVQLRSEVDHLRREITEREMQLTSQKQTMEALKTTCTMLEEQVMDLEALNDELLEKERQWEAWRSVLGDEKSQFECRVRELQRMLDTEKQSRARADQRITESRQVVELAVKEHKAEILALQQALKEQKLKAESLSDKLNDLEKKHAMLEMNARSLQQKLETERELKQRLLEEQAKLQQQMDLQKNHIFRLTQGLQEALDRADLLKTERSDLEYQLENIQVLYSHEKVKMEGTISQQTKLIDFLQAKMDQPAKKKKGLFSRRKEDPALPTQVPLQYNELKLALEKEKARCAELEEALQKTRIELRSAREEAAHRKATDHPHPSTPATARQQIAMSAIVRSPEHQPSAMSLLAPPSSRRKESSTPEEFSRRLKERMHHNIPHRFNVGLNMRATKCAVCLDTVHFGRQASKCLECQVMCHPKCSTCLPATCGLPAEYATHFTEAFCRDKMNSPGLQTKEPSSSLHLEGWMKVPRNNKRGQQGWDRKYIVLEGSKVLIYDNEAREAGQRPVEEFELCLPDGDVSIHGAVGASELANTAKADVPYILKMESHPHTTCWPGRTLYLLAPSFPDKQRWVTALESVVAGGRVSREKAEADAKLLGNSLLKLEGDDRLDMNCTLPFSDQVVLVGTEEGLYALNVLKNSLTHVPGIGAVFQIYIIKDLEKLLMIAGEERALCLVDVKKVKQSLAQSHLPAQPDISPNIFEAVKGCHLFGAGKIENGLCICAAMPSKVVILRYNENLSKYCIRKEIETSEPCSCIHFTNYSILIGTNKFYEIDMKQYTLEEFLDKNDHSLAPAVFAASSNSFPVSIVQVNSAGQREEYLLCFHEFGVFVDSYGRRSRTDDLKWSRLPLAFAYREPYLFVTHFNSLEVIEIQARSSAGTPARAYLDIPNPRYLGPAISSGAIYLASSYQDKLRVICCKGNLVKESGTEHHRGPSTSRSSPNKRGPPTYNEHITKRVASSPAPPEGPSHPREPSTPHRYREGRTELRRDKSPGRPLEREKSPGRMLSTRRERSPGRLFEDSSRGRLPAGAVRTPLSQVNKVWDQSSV
Compounds were screened for biochemical kinase activity (Eurofins Discovery, France) using one of two assays. […] All values in Table 1 are the mean of at least two independent assays.

For 32 compounds, IC50 results are on record in patent US20250243196A1, “CITRON KINASE INHIBITORS” (The Cleveland Clinic Foundation, priority 2021, published 2025).

The structures appear in SMILES notation. pIC50: −log10 of the molar value.

Take `Cc1cc2c(-c3ccc(NC(=O)[C@H](N)Cc4ccccc4)cc3)ccnc2[nH]1` [Compound F-92, (2R)-2-Amino-N-[4-(2-methyl-1H-pyrrolo[2,3-b]pyridin-4-yl)phenyl]-3-phenyl-propanamide]: the pIC50 (in general, −log10 of the IC50, conventionally taken in molar units) is 6.38.

For the compound `CCc1cc(NC(=O)[C@H](N)C(C)(C)C)ccc1-c1ccnc2[nH]c(C)cc12` [Compound F-93, (2R)-2-Amino-N-[3-ethyl-4-(2-methyl-1H-pyrrolo[2,3-b]pyridin-4-yl)phenyl]-3,3-dimethyl-butanamide], the pIC50 was 6.92.

`CN[C@H](CC(C)C)C(=O)Nc1ccc(-c2ccnc3[nH]c(C)cc23)cc1` [Compound F-94, (2R)-4-Methyl-2-(methylamino)-N-[4-(2-methyl-1H-pyrrolo[2,3-b]pyridin-4-yl)phenyl]pentanamide]: the pIC50 is 7.36.

As for `Cc1cc2c(-c3ccc(NC(=O)[C@H](N)CC(C)C)nc3C)ccnc2[nH]1` [Compound F-95, (2R)-2-Amino-4-methyl-N-[6-methyl-5-(2-methyl-1H-pyrrolo[2,3-b]pyridin-4-yl)-2-pyridyl]pentanamide], the pIC50 is 6.62.

In the case of `Cc1cc2c(-c3ncc(NC(=O)[C@H](N)CC(C)(C)C)cc3C)ccnc2[nH]1` [Compound F-96, (2R)-2-Amino-4,4-dimethyl-N-[5-methyl-6-(2-methyl-1H-pyrrolo[2,3-b]pyridin-4-yl)-3-pyridyl]pentanamide], the pIC50 was 7.01.

For `Cc1cc2c(-c3ccc(NC(=O)[C@H](N)CC(C)(C)C)cc3C(F)F)ccnc2[nH]1` [Compound F-97, (2R)-2-Amino-N-[3-(difluoromethyl)-4-(2-methyl-1H-pyrrolo[2,3-b]pyridin-4-yl)phenyl]-4,4-dimethyl-pentanamide], the pIC50 was 7.53.

For the compound `Cc1cc(NC(=O)[C@H](N)CC(C)C)ccc1-c1ccnc2[nH]c(C(F)(F)F)cc12` [Compound F-98, (2R)-2-Amino-4-methyl-N-[3-methyl-4-[2-(trifluoromethyl)-1H-pyrrolo[2,3-b]pyridin-4-yl]phenyl]pentanamide], the pIC50 is 7.52.

As for `Cc1cc(NC(=O)[C@H](N)CC(C)(C)C)ccc1-c1ccnc2[nH]c(C(F)(F)F)cc12` [Compound F-99, (2R)-2-Amino-4,4-dimethyl-N-[3-methyl-4-[2-(trifluoromethyl)-1H-pyrrolo[2,3-b]pyridin-4-yl]phenyl]pentanamide], the pIC50 is 6.99.

On to `Cc1cc(NC(=O)[C@H](N)C(C)(C)C)ccc1-c1ccnc2[nH]c(C(F)(F)F)cc12` [Compound F-100, (2R)-2-Amino-3,3-dimethyl-N-[3-methyl-4-[2-(trifluoromethyl)-1H-pyrrolo[2,3-b]pyridin-4-yl]phenyl]butanamide], for which the pIC50 was 6.42.

Turning to `Cc1cc(NC(=O)[C@H](N)CC(C)C)ccc1-c1ccnc2[nH]c(C(F)F)cc12` [Compound F-101, (2R)-2-Amino-N-[4-[2-(difluoromethyl)-1H-pyrrolo[2,3-b]pyridin-4-yl]-3-methyl-phenyl]-4-methyl-pentanamide], the pIC50 is 7.74.

On to `Cc1cc(NC(=O)[C@H](N)CC(C)(C)C)ccc1-c1ccnc2[nH]c(C(F)F)cc12` [Compound F-102, (2R)-2-Amino-N-[4-[2-(difluoromethyl)-1H-pyrrolo[2,3-b]pyridin-4-yl]-3-methyl-phenyl]-4,4-dimethyl-pentanamide], for which the pIC50 is 7.93.

On to `Cc1cc(NC(=O)[C@H](N)C(C)(C)C)ccc1-c1ccnc2[nH]c(C(F)F)cc12` [Compound F-103, (2R)-2-Amino-N-[4-[2-(difluoromethyl)-1H-pyrrolo[2,3-b]pyridin-4-yl]-3-methyl-phenyl]-3,3-dimethyl-butanamide], for which the pIC50 was 7.17.

In the case of `CC(C)(C)C[C@@H](N)C(=O)Nc1ccc(-c2ccnc3[nH]c(C(F)(F)F)cc23)nc1` [Compound F-104, (2R)-2-Amino-4,4-dimethyl-N-[6-[2-(trifluoromethyl)-1H-pyrrolo[2,3-b]pyridin-4-yl]-3-pyridyl]pentanamide], the pIC50 is 6.38.

On to `CC(C)(C)C[C@@H](N)C(=O)Nc1ccc(-c2ccnc3[nH]c(C(F)F)cc23)nc1` [Compound F-105, (2R)-2-Amino-N-[6-[2-(difluoromethyl)-1H-pyrrolo[2,3-b]pyridin-4-yl]-3-pyridyl]-4,4-dimethyl-pentanamide], for which the pIC50 was 6.58.

In the case of `Cc1cnc2[nH]ccc2c1-c1ccc(NC(=O)[C@H](N)C(C)(C)C)cc1` [Compound F-107, (2R)-2-Amino-3,3-dimethyl-N-[4-(5-methyl-1H-pyrrolo[2,3-b]pyridin-4-yl)phenyl]butanamide], the pIC50 was 6.43.

On to `CC(C)(C)[C@@H](N)C(=O)Nc1nc(-c2ccnc3[nH]ccc23)cs1` [Compound F-111, (2R)-2-Amino-3,3-dimethyl-N-[4-(1H-pyrrolo[2,3-b]pyridin-4-yl)thiazol-2-yl]butanamide], for which the pIC50 is 7.53.

`Cc1cc2c(-c3csc(NC(=O)[C@H](N)C(C)(C)C)n3)ccnc2[nH]1` [Compound F-112, (2R)-2-Amino-3,3-dimethyl-N-[4-(2-methyl-1H-pyrrolo[2,3-b]pyridin-4-yl)thiazol-2-yl]butanamide]: the pIC50 is 6.91.

Turning to `Cc1cc2c(-c3csc(NC(=O)[C@@H](N)C(C)(C)C)n3)ccnc2[nH]1` [Compound F-113, (2S)-2-Amino-3,3-dimethyl-N-[4-(2-methyl-1H-pyrrolo[2,3-b]pyridin-4-yl)thiazol-2-yl]butanamide], the pIC50 was 6.95.

With `Cc1cc2c(-c3csc(NC(=O)[C@H](N)C(C)C)n3)ccnc2[nH]1` [Compound F-114, (2R)-2-Amino-3-methyl-N-[4-(2-methyl-1H-pyrrolo[2,3-b]pyridin-4-yl)thiazol-2-yl]butanamide], the pIC50 is 6.61.

Take `Cc1cc2c(-c3csc(NC(=O)C(N)C4(C(F)(F)F)CC4)n3)ccnc2[nH]1` (centres unmarked) [Compound F-115, 2-Amino-N-[4-(2-methyl-1H-pyrrolo[2,3-b]pyridin-4-yl)thiazol-2-yl]-2-[1-(trifluoromethyl)cyclopropyl]acetamide]: the pIC50 is 6.89.

For `Cc1cc2c(-c3csc(NC(=O)[C@H](N)CC(C)C)n3)ccnc2[nH]1` [Compound F-116, (2R)-2-Amino-4-methyl-N-[4-(2-methyl-1H-pyrrolo[2,3-b]pyridin-4-yl)thiazol-2-yl]pentanamide], the pIC50 is 6.43.

For the compound `Cc1cc2c(-c3nc(NC(=O)[C@H](N)C(C)(C)C)sc3C)ccnc2[nH]1` [Compound F-117, (2R)-2-Amino-3,3-dimethyl-N-[5-methyl-4-(2-methyl-1H-pyrrolo[2,3-b]pyridin-4-yl)thiazol-2-yl]butanamide], the pIC50 is 5.52.

For `Cc1cc(NC(=O)[C@H](N)Cc2ccccc2)ccc1-c1ccnc2[nH]ccc12` [Compound F-127, (2R)-2-Amino-N-[3-methyl-4-(1H-pyrrolo[2,3-b]pyridin-4-yl)phenyl]-3-phenyl-propanamide], the pIC50 was 6.84.

With `COc1cc(NC(=O)[C@H](N)Cc2ccccc2)ccc1-c1ccnc2[nH]ccc12` [Compound F-128, (2R)-2-Amino-N-[3-methoxy-4-(1H-pyrrolo[2,3-b]pyridin-4-yl)phenyl]-3-phenyl-propanamide], the pIC50 was 6.22.

Turning to `N[C@@H](Cc1ccccc1)C(=O)Nc1ccc(-c2ccnc3[nH]ccc23)c(C(F)(F)F)c1` [Compound F-129, (2S)-2-Amino-3-phenyl-N-[4-(1H-pyrrolo[2,3-b]pyridin-4-yl)-3-(trifluoromethyl)phenyl]propanamide], the pIC50 was 5.52.

For the compound `N[C@H](Cc1ccccc1)C(=O)Nc1ccc(-c2ccnc3[nH]ccc23)c(C(F)(F)F)c1` [Compound F-130, (2R)-2-Amino-3-phenyl-N-[4-(1H-pyrrolo[2,3-b]pyridin-4-yl)-3-(trifluoromethyl)phenyl]propanamide], the pIC50 is 5.85.

`COc1cc(-c2ccnc3[nH]ccc23)ccc1NC(=O)[C@H](N)Cc1ccccc1` [Compound F-131, (2R)-2-Amino-N-[2-methoxy-4-(1H-pyrrolo[2,3-b]pyridin-4-yl)phenyl]-3-phenyl-propanamide]: the pIC50 is 6.52.

On to `Cc1cc(-c2ccnc3[nH]ccc23)ccc1NC(=O)[C@H](N)Cc1ccccc1` [Compound F-132, (2R)-2-Amino-N-[2-methyl-4-(1H-pyrrolo[2,3-b]pyridin-4-yl)phenyl]-3-phenyl-propanamide], for which the pIC50 was 6.63.

`N[C@H](Cc1ccccc1)C(=O)Nc1ccc(-c2ccnc3[nH]ccc23)cc1Cl` [Compound F-133, (2R)-2-Amino-N-[2-chloro-4-(1H-pyrrolo[2,3-b]pyridin-4-yl)phenyl]-3-phenyl-propanamide]: the pIC50 is 6.25.

For the compound `N[C@H](Cc1ccccc1)C(=O)Nc1cccc(-c2ccnc3[nH]ccc23)c1` [Compound F-134, (2R)-2-Amino-3-phenyl-N-[3-(1H-pyrrolo[2,3-b]pyridin-4-yl)phenyl]propanamide], the pIC50 was 7.19.

In the case of `CCc1c[nH]c2nccc(-c3ccc(NC(=O)[C@H](N)Cc4ccccc4)cc3)c12` [Compound F-136, (2R)-2-Amino-N-[4-(3-ethyl-1H-pyrrolo[2,3-b]pyridin-4-yl)phenyl]-3-phenyl-propanamide], the pIC50 was 5.90.

As to `Cc1c(-c2ccnc3[nH]ccc23)ccc(NC(=O)[C@H](N)C(C)(C)C)c1F` [Compound F-137, (2R)-2-Amino-N-[2-fluoro-3-methyl-4-(1H-pyrrolo[2,3-b]pyridin-4-yl)phenyl]-3,3-dimethyl-butanamide], the pIC50 is 7.64.
